Data published in patent US7427640B1, “Oil materials comprising dimerdiol ester and cosmetics comprising the ester” (Nippon Fine Chemical Co., Ltd., priority 1999, dated 2008).
Like-named read-outs stand apart in the source and are kept apart here.

Columns and labels:
Type in all cases: physicochemical
[1] = Dispersability for pigment, organic pigment Red No. 202
Excerpt: (§1) Titanium dioxide, red iron oxide and organic pigment used in the measurement are PIGMOLITE CR-50, PIGMOLITE BENGARA No. 211 and Red 202, respectively, manufactured by DAITO KASEI KOGYO Co. Ltd. The dispersability is expressed by amount (g) of the tested sample per 100 g of the pigment at wet point (W.P) and flow point (F.P).

[2] = Refractive index (refractometer Model 3)
Procedure: Refractive index of the dimerdiol esters obtained in Examples 1, 3, 5, 7, 9 and 11 were measured. Each of the refractive index was measured at 30° C. using a refractometer Model 3 (Manufactured by ATAGO BUSSAN Ltd.).
Refractive index of the esters obtained in Examples 28-35 were measured. Each of the refractive index was measured at 20° C. using a refractometer Model 3 (Manufactured by ATAGO BUSSAN Ltd.).

[3] = Dispersability for pigment, titanium dioxide
Excerpt: as §1

[4] = Dispersability for pigment, red iron oxide; conditions: amount of tested sample per 100 g of the pigment at wet point
Excerpt: as §1

[5] = Gloss of wax-solidified ester (handy glossmeter); conditions: coated on paraffin paper, intensity of reflected light at 60°
Procedure: Each of the solidified product was coated on paraffin paper and gloss was measured with a handy glossmeter manufactured by HORIBA Ltd. Gloss was expressed by intensity of light reflected on the coated surface of paraffin paper at incident angle/reflection angle of 60°.

[6] = Alkali hydrolysis resistance; conditions: 0.8 g of sample heated at 80° C. for 3 hours in 25 mL of 0.05 N KOH-ethanol solution
Procedure: Alkali hydrolysis resistance of the dimerdiol esters obtained in Examples 1, 3, 5, 7, 9 and 11 were measured. The alkali hydrolysis resistance was expressed by the decomposition ratio of 0.8 g of sample which was heated at 80° C. for 3 hours in 25 mL of 0.05 N of KOH-ethanol solution.

[7] = Oxidation stability, Rancimat 676 automatic oils and fats stability test
Excerpt: Index of the oxidation stability was expressed by the time until conductance of the trapped water started rising. […] Index of the oxidation stability was expressed by the time until conductance of the trapped water started rising.

[8] = amount of tested sample per 100 g of the pigment at flow point
[9] = amount of tested sample per 100 g of the pigment at wet point
[10] = 120° C., 3 g of sample, air flow rate 20 L/Hr, time until conductance of the trapped water started rising, esters of Examples 1-12

| Decomposition ratio [6] [%] | Refractive index ([2]; 30° C.) | Compound | Index of oxidation stability [7, 10] [h] | other results |
| --- | --- | --- | --- | --- |
| 8 | – | CC(C)CCCCC(=O)OCC(O)CO (centres unmarked) [glyceryl isooctanoate, reference compound] | – | – |
| – | 1.4778 | dimerdiol [PESPOL HP-1000] | – | – |

Continued, compound first:

| Compound | Decomposition ratio [6] [%] | Refractive index ([2]; 30° C.) | Index of oxidation stability [7, 10] [h] | other results |
| --- | --- | --- | --- | --- |
| CC(C)CCCCCCCCCCCCCCCOC(=O)CC(O)C(=O)OCCCCCCCCCCCCCCCC(C)C (centres unmarked) [di-iostearyl malate, di-isostearyl malate] | – | – | – | Red 202 F.P [1, 8]: 200 g; Red 202 W.P [1, 9]: 106 g; Refractive index ([2]; 20° C.): 1.4611; Titanium dioxide F.P [3, 8]: 55 g; Titanium dioxide W.P [3, 9]: 26 g; Red iron oxide W.P [4]: 63 g; Gloss, Candelira wax ([5]; solidified by compounding 20% of candelira wax): 41; Gloss, Ceresin ([5]; solidified by compounding 20% of ceresine): 35 |
| erucic acid dimerdiol ester [Example 3] | 79 | 1.4719 | 3 | – |
| hydrogenated rosin dimerdiol ester [Example 1] | 3 | 1.5075 | 6 | – |
| isostearic acid dimerdiol ester [Example 11] | 70 | 1.4709 | 8 | – |
| long chain branched fatty acid dimerdiol ester [Example 7] | – | – | – | Index of oxidation stability [7]: 4 h |
| mono-isostearic acid dimerdiol ester [Example 5] | 71 | 1.4659 | 8 | – |
